The subject of experiment [1] is Phytophthora infestans. Kind of experiment: whole plant or invertebrate. Type of experiment: in vivo. Particulars: for pest or weed control at 150 ppm: Phytophthora infestans, in Solanum lycopersicum, foliar, read-out: Percent Disease Control, foliar, tomato late blight, 150 ppm, protective.
Experiment [2] deals with Rhizoctonia solani. Kind of experiment: Mycelial growth test. Type of experiment: cell-based. Particulars: RS; for Percent Fungus Growth Inhibition: 72 hours; for inhibition at 5 ppm / inhibition at 10 ppm / inhibition at 20 ppm / inhibition at 40 ppm: Rhizoctonia solani, 72 h, read-out: Percent Fungus Growth Inhibition. An excerpt: | RS = Rhizoctonia solani

As to “3-chloro-5-[methylaminocarbonyloxy)phenoxyl]-4H-1,2,6-thiadiazin-4-one [Compound 36]”, in experiment [1] (150 ppm, protective), the “Percent Disease Control, foliar, tomato late blight” value was 90%. Moreover, the “Percent Fungus Growth Inhibition” value in experiment [2] (5 ppm) was determined as 0%; in experiment [2] (10 ppm) it was 4%; in experiment [2] (20 ppm), 42%; in experiment [2] (40 ppm) it was 87%.
For the molecule `O=c1c(Cl)nsnc1Oc1ccccc1` [Compound 2, 3-chloro-5-phenoxy-4H--1,2,6-thiadiazin-4-one], the pest or weed control at 150 ppm in experiment [1] came out at 0%. Also, the inhibition at 5 ppm in experiment [2] (5 ppm) was 0%. In addition, the inhibition at 10 ppm in experiment [2] (10 ppm) was 42%. For the same molecule, the inhibition at 20 ppm in experiment [2] (20 ppm) was found to be 100%. Besides, the inhibition at 40 ppm in experiment [2] (40 ppm) worked out at 78%.
Regarding `Cc1ccc(Oc2nsnc(Cl)c2=O)cc1` [Compound 3, 3-chloro-5-(4-methylphenoxy)-4H--1,2,6-thiadiazin-4-one], the pest or weed control at 150 ppm in experiment [1] came to 50%. Besides, the inhibition at 5 ppm in experiment [2] (5 ppm) turned out to be 0%. Besides, the inhibition at 10 ppm in experiment [2] (10 ppm) is 20%. For the same molecule, in experiment [2] (20 ppm), the inhibition at 20 ppm came to 56%. The inhibition at 40 ppm in experiment [2] (40 ppm) came to 100%.
Take `CC(C)(C)c1ccc(Oc2nsnc(Cl)c2=O)cc1` [Compound 4, 3-chloro-5-(4-tert-butylphnoxy)-4H--1,2,6-thiadiazin-4-one]: in experiment [1], the pest or weed control at 150 ppm was 0%. The inhibition at 5 ppm in experiment [2] (5 ppm) is 0%. The inhibition at 10 ppm in experiment [2] (10 ppm) was found to be 0%. Besides, the inhibition at 20 ppm in experiment [2] (20 ppm) is 0%. Further, in experiment [2] (40 ppm), the inhibition at 40 ppm amounted to 0%.
Take `COc1ccc(Oc2nsnc(Cl)c2=O)cc1` [Compound 5, 3-chloro-5-(4-methoxyphenoxy)4H--1,2,6-thiadiazin-4-one]: the pest or weed control at 150 ppm in experiment [1] was 0%. The inhibition at 5 ppm in experiment [2] (5 ppm) is 0%. The inhibition at 10 ppm in experiment [2] (10 ppm) came to 0%. Besides, the inhibition at 20 ppm in experiment [2] (20 ppm) turned out to be 38%. Moreover, the inhibition at 40 ppm in experiment [2] (40 ppm) turned out to be 64%.
For the molecule `CCCCOc1ccc(Oc2nsnc(Cl)c2=O)cc1` [Compound 6, 3-chloro-5-(4-n-butoxyphenoxy)-4H--1,2,6-thiadiazin-4-one], in experiment [1], the pest or weed control at 150 ppm worked out at 0%. The inhibition at 5 ppm in experiment [2] (5 ppm) was found to be 0%. Also, the inhibition at 10 ppm in experiment [2] (10 ppm) amounted to 0%. For the same molecule, in experiment [2] (20 ppm), the inhibition at 20 ppm came to 0%. In addition, the inhibition at 40 ppm in experiment [2] (40 ppm) was 20%.
Take `CCOC(=O)c1ccc(Oc2nsnc(Cl)c2=O)cc1` [Compound 7, 3-chloro-5-(4-ethoxycarbonylphenoxy)-4H--1,2,6-thiadiazin-4-one]: in experiment [1], the pest or weed control at 150 ppm was determined as 100%. For the same molecule, the inhibition at 5 ppm in experiment [2] (5 ppm) was 7%. In experiment [2] (10 ppm), the inhibition at 10 ppm is 33%. The inhibition at 20 ppm in experiment [2] (20 ppm) worked out at 53%. Also, the inhibition at 40 ppm in experiment [2] (40 ppm) amounted to 76%.
For `CC(=O)Nc1ccc(Oc2nsnc(Cl)c2=O)cc1` [Compound 8, 5-(4-acetylaminophenoxy)-3-chloro-4H--1,2,6-thiadiazin-4-one] the same measures were 90%, 0%, 0%, 7% and 42%.
The like results for `O=c1c(Cl)nsnc1Oc1ccc([N+](=O)[O-])cc1` [Compound 9, 3-chloro-5-(4-nitrophenoxy)-4H--1,2,6-thiadiazin-4-one] were, in that order, 90%, 13%, 42%, 69% and 78%.
For `N#Cc1ccc(Oc2nsnc(Cl)c2=O)cc1` [Compound 10, 3-chloro-5-(4-cyanophenoxy)-4H--1,2,6-thiadiazin-4-one] the same measures were 100%, 9%, 13%, 100% and 100%.
In the case of `O=c1c(Cl)nsnc1Oc1ccc(F)cc1` [Compound 11, 3-chloro-5-(4-fluorophenoxy)-4H--1,2,6-thiadiazin-4-one], in experiment [1], the pest or weed control at 150 ppm came out at 100%. Besides, the inhibition at 5 ppm in experiment [2] (5 ppm) is 0%. Further, in experiment [2] (10 ppm), the inhibition at 10 ppm turned out to be 38%. Further, in experiment [2] (20 ppm), the inhibition at 20 ppm was found to be 76%. Besides, the inhibition at 40 ppm in experiment [2] (40 ppm) turned out to be 91%.
For `O=c1c(Cl)nsnc1Oc1ccc(Cl)cc1` [Compound 12, 3-chloro-5-(4-chlorophenoxy)-4H--1,2,6-thiadiazin-4-one] the same measures were 100%, 20%, 58%, 64% and 100%.

The record behind these values is patent publication US4450269A, “Mono-5-substituted-3-chloro-4H-1,2,6-thiadiazin-4-one antifungal agents” (FMC Corporation, priority 1980, dated 1984).
